{
  "source": "patent US20250375450A1",
  "about": "“SMARCA2/4 INHIBITION AS A STRATEGY TO TREAT TUMORS THAT HARBOR ABERRANT BAF ASSEMBLIES” (BOARD OF REGENTS, THE UNIVERSITY OF TEXAS SYSTEM, priority 2022, published 2025)",
  "key": {"BAF complex in ES3 cells": {"tested_on": "BAF complex in ES3 cells", "experiment": "BAF complex assembly, size-exclusion chromatography of nuclear lysates and immunoblot", "type": "cell-based", "conditions": "7.5 μM AT-301", "excerpt": "(§1) FIG. 12A-D show representative data illustrating that the assembly of BAF complex is perturbed by AT-301 inhibitor without perturbing oncogenic fusion protein levels. Referring to FIG. 12A and FIG. 12B, immunoblots of RH41 (FIG. 12A) and ES7 (FIG. 12B) cells after 4 and 12 hrs of treatment with AT-301 or DMSO. FOXO1 and FLI1 expression remains unchanged upon AT-301 treatment. Referring to FIG. 12C and FIG. 12D, gel filtration chromatography of ES3 (FIG. 12C) and RH41 (FIG. 12D) cell nuclear lysates after BAF-X-1 treatment are shown. Lysates were passed through a Sephacryl S-400 HR column and every fourth fraction was immuno-blotted for the proteins indicated with fraction numbers above the lanes.\n(§2) Next, whether AT-301 can perturb the assembly of BAF complex was evaluated using size-exclusion chromatography (SEC) method. Cells were cultured on 15 cm petri-dishes. Nuclei were extracted and lysed. A HiPrep 16/60 Sephacryl S-400 HR column (GE) was equilibrated with a running buffer and 4 mg of the lysate was loaded on to the column. Fractions of 1 mL were eluted at an elution rate of 0.8 mL/min. Eluted proteins were analyzed by concentrating and immunoblotting every fourth fraction."}, "BAF complex in RH4 cells": {"tested_on": "BAF complex in RH4 cells", "experiment": "BAF complex assembly, size-exclusion chromatography of nuclear lysates and immunoblot", "type": "cell-based", "conditions": "7.5 μM AT-301", "excerpt": "as §1, §2"}, "ES3 cells": {"tested_on": "ES3 cells", "experiment": "Live imaging of ES3 cells", "type": "cell-based", "method": "In vivo live imaging of ES3 cells in the presence of AT-301 (IC50˜5 μM).\nBriefly, human SMARCA2 was purified, and a high-throughput screen (HTS) of 40,000 compounds was conducted. […] In brief, cells were grown in RPMI media supplemented with 10% Fetal bovine serum (FBS), 1× penicillin, and streptomycin antibiotics. Cells were placed in an incubator with 5% C02 and 50% humidity. When cells reached 90% confluency, cells were harvested, washed twice in 1×PBS, counted using trypan blue exclusion method. Then cells were seeded in 96-well plates (duplicates, n=2) at the density of 20,000 cells per well. Allowed them to attach to the bottom of the well for 1 to 2 hrs and treated with different concentration of AT-301 compound starting at highest concentration of 10 micromolar to serial dilution of the compound to the lowest concentration of 0.039 micromolar. Cells treated with only DMSO were also included as negative control. Cells were monitored for 72 hrs. by live cell imaging method (Incucyte S3) taking images every two hours. The confluency was determined and plotted against time (hours) by using Prism software."}, "[1]": {"tested_on": "FLI1 expression in ES7 cells", "experiment": "Immunoblot of oncogenic transcription factor levels", "type": "cell-based", "conditions": "4 and 12 hrs of treatment", "excerpt": "(§3) FIG. 12A-D show representative data illustrating that the assembly of BAF complex is perturbed by AT-301 inhibitor without perturbing oncogenic fusion protein levels. Referring to FIG. 12A and FIG. 12B, immunoblots of RH41 (FIG. 12A) and ES7 (FIG. 12B) cells after 4 and 12 hrs of treatment with AT-301 or DMSO. FOXO1 and FLI1 expression remains unchanged upon AT-301 treatment. Referring to FIG. 12C and FIG. 12D, gel filtration chromatography of ES3 (FIG. 12C) and RH41 (FIG. 12D) cell nuclear lysates after BAF-X-1 treatment are shown. […]\n(§4) Next, whether the levels of oncogenic transcription factors in RH41 and ES7 cells change upon treatment with AT-301 was tested. Harvested cells were lysed in NP-40 lysis buffer (Thermo Scientific, J60766) supplemented with protease and phosphatase inhibitor (Halt Protease and phosphatase inhibitor cocktail (Thermo Scientific). Total protein was quantified using Bradford assay (Biorad), and 20 μg of it was denatured and separated on pre-cast tris-acetate or tris-glycine gels (Invitrogen). The protein was then transferred to nitrocellulose membranes (Cytiva) and subsequently probed using primary and secondary antibodies. The signal was detected using Clarity and Clarity Max ECL substrates (Biorad) and imaged on Biorad ChemiDoc)."}, "[2]": {"tested_on": "FOXO1 expression in RH41 cells", "experiment": "Immunoblot of oncogenic transcription factor levels", "type": "cell-based", "conditions": "4 and 12 hrs of treatment", "excerpt": "as §3, §4"}, "SMARCAL1": {"target": "SMARCAL1 (Homo sapiens, UniProt Q9NZC9)", "sequence (Q9NZC9 whole entry)": "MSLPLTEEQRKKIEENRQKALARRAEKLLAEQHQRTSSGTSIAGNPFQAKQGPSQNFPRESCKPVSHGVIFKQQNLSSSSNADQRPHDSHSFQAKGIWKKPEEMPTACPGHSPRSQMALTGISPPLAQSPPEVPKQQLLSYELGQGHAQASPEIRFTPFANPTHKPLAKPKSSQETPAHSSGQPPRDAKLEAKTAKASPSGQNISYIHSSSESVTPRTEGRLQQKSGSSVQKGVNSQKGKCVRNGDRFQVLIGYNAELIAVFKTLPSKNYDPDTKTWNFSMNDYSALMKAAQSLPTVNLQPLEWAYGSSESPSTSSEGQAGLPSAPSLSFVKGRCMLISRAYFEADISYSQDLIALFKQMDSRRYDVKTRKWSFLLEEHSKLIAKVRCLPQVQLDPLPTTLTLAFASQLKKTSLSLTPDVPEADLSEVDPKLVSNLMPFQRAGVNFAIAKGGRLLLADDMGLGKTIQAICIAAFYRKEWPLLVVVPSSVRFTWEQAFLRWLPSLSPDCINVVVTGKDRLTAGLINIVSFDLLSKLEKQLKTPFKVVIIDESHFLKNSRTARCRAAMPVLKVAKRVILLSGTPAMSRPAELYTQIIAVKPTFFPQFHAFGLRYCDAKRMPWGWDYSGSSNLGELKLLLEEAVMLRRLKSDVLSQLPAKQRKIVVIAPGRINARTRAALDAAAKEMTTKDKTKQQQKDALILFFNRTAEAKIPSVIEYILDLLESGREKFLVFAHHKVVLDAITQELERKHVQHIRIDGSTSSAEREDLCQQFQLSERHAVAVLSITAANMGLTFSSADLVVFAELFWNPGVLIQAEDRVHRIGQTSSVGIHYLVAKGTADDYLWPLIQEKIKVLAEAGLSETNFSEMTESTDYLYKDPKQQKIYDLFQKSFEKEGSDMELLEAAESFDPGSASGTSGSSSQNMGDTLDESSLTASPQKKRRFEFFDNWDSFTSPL", "experiment": "Activity of other SWI/SNF ATPases not part of the BAF complex", "type": "biochemical", "conditions": "SWI/SNF ATPase not part of the BAF complex"}, "ovarian cancer cells": {"tested_on": "ovarian cancer cells", "experiment": "Growth/killing of ovarian cancer cells", "type": "cell-based", "conditions": "dose-dependent", "method": "(§5) Proliferation of adherent cells was determined on the IncuCyte live-cell imaging system (Essen BioScience). Cells were seeded on clear bottom 96 well plates at a seeding density of 2000 cells/well. Cells were allowed to attach overnight after which the medium was replaced with fresh medium containing serial dilutions (2×) of the compound or DMSO control. Percent confluence was calculated by the IncuCyte software from four different images per well from at least three replicate wells. For non-adherent cells, the 96-well plates were coated with poly-L-lysine before seeding to facilitate cell adhesion. At the end of the assay, dose-dependent cell viability was determined by staining the cells with PrestoBlue (Invitrogen, A13261) as per manufacturer's instructions and IC50 was calculated (FIG. 10).\nReferring to FIG. 10A, AT-301 kills a variety of cancer cells (brain tumors, rhabdomyosarcoma, nonsmall cell lung cancer, leukemia, and Ewing's Sarcoma. We also tested whether AT-301 can kill cells representing gynecological cancers (ovarian and endometrial cancer). As shown in FIG. 10B-C, AT-301 kills a variety of ovarian and endometrial cancer cells."}, "RH41 cells": {"tested_on": "RH41 cells", "experiment": "Cell cycle analysis, propidium iodide/RNase flow cytometry", "type": "cell-based", "conditions": "7.5 μM AT-301, 24 hours", "method": "Referring to FIG. 11A and FIG. 11B, RH4 (FIG. 11A) and ES3 (FIG. 11B) cells were treated with the indicated concentrations of BAF-X-1 or DMSO in triplicate and apoptosis was detected using the IncuCyte Caspase 3/7 green dye (Sartorius). Brightfield and green fluorescence images were captured every 2 hours from 4 fields per well on the IncuCyte live cell imager. The proportion of caspase positive (green) cells relative to % confluence of the well was calculated on the IncuCyte software and plotted against time. Referring to FIG. 11C and FIG. 11D, RH41 cells were treated with 7.5 μM AT-301 (FIG. 11D) or DMSO (FIG. 11C) for 24 hours, harvested with accutase, washed, and fixed in 70% ethanol. They were subsequently stained with propidium iodide/RNase and fluorescence was analyzed on BD flow cytometer. Resulting data was analyzed using FlowJo software.\nTo test the alterations in cell cycle upon AT-301 treatment, RH41 cells were cultured in 12 well plates, detached using Accutase (Corning, 25-058-Cl), washed with PBS, and fixed in 70% ethanol. For staining, the fixed cells were washed with PBS and stained with FxCycle PI/RNase staining solution (Invitrogen, F10797) as per the supplier's directions. Fluorescence intensity of stained cells was measured on (BD system) and analyzed using FlowJo."}, "D556": {"tested_on": "D556", "experiment": "Cell proliferation assay and IC50 measurement (PrestoBlue)", "type": "cell-based", "conditions": "PrestoBlue cell viability", "method": "(§6) FIG. 10A-C show representative data illustrating that AT-301 kills Ewing's, RMS, GBM, AML, and other cancer cells. Cell lines were treated with serial dilutions (2×) of AT-301, and IC50 values of each cell line were determined using PrestoBlue dye for cell viability following manufacturer's protocol (Invitrogen, A13261). See also Table 3.\n(§7) DAOY, D556 cells: EMEM, 10% FBS, Penicillin (100 units/mL) and streptomycin (100 μg/mL) in the presence of 5% CO2.\nas §5"}, "DAOY": {"tested_on": "DAOY", "experiment": "Cell proliferation assay and IC50 measurement (PrestoBlue)", "type": "cell-based", "conditions": "Homo sapiens, PrestoBlue cell viability", "method": "as §6, §7, §5"}},
  "note": "Entries after “also recorded” stand apart in the source; their conditions may differ.",
  "data": [
    {"smiles": "Clc1ccc(CNc2nc(NC3CCCC3)nc3ccccc23)cc1Cl", "note": "[AT-301, N^2-cyclopentyl-N^4-(3,4-dichlorobenzyl)quinazoline-2,4-diamine]", "values": [
      {"measurement": "Assembly of BAF complexes", "setting": "BAF complex in ES3 cells", "value": "perturbed assembly"},
      {"measurement": "Assembly of BAF complexes", "setting": "BAF complex in RH4 cells", "value": "perturbed assembly"},
      {"measurement": "IC50", "setting": "ES3 cells", "value": "~5", "unit": "µM"},
      {"measurement": "Expression of oncogenic transcription factor (FLI1)", "setting": "[1]", "value": "does not alter the expression"},
      {"measurement": "Expression of oncogenic transcription factor (FOXO1)", "setting": "[2]", "value": "does not alter the expression"},
      {"measurement": "Inhibition of activity of SMARCAL1", "setting": "SMARCAL1", "value": "fails to inhibit"},
      {"measurement": "Growth/killing of ovarian cancer cells", "setting": "ovarian cancer cells", "value": "kills; also recorded: inhibits the growth"},
      {"measurement": "Cell cycle alteration", "setting": "RH41 cells", "value": "arrested in GO-Gi phase"},
      {"measurement": "IC50", "setting": "D556", "value": 3.02, "unit": "µM"},
      {"measurement": "IC50", "setting": "DAOY", "value": 4.19, "unit": "µM"}
    ]}
  ]
}
